Converted amounts (≈) assume the structure as drawn. Read-outs that look alike come from different tables or passages of the source.
What was measured:
A549 cells = experiment: Cytotoxicity, aqueous one solution reagent; type: cell-based; conditions: for IC50: 24 h treatment, read-out: IC50 against A549
Experimental: (§1) The cytotoxic study was carried out as reported previously. Briefly, IMR90, HepG-2, and A549 cells were grown in DMEM (Dulbecco’s Modified Eagle Medium) that contained 10% fetal bovine serum and 1% antibiotics. A total of 15 × 10^3 cells/well were seeded in 96-well plates and incubated under humidified conditions. Cells were treated with varying concentrations of synthesized triazoles for 24 h. After a 24 h treatment, 20 µL aqueous one solution reagent was added to each well and incubated for 3–4 h under a humidified condition. For IMR90 cells, MTT (MTT = 3-(4,5-dimethyl-2-thiazolyl)-2,5-diphenyl-2H-tetrazolium bromide) (5 mg/mL) was added and incubated for 3–4 h in the dark. After incubation, 100 µL of a 10% SDS (Sodium Dodecyl Sulfate) solution (0.01% HCl) was added to each well. The data was taken using an ELISA (enzyme-linked immunosorbent assay) reader at the absorbance of 490 nm for HepG-2 and A549 cells and 570 nm for IMR90 cells. The cell death was calculated using the following formula: Inhibition (%) = ((A − B)/A) × 100 (A—control group, B—treated group).

HepG-2 cells = experiment: Cytotoxicity, aqueous one solution reagent; type: cell-based; conditions: for IC50: read-out: IC50 against HepG-2
Experimental: as §1

Candida albicans = experiment: Antimicrobial well method, zone of inhibition; type: cell-based; conditions: 1 mg/well
Experimental: (§2) Antimicrobial activity was carried out as described previously. Briefly, 20 mL of sterile Mueller Hinton agar (MHA) was poured in the petri plates and kept for solidification. After solidification, the test cultures were swabbed on the top of the media and kept for 10 min to dry. The required concentration (1 mg/well) of synthesized compounds 5a–l was added to each well and left for 30 min at RT for compound diffusion. Ketoconazole (fungi) and streptomycin (bacteria) used for positive controls. The zone of inhibition was recorded in mm and the experiment was repeated twice.

Malassezia pachydermatis = experiment: Antimicrobial well method, zone of inhibition; type: cell-based
Experimental: as §2

Enterobacter aerogenes [1] = experiment: Antimicrobial well method, zone of inhibition; type: cell-based; conditions: Klebsiella aerogenes
Experimental: as §2

Micrococcus luteus [2] = experiment: Antimicrobial well method, zone of inhibition; type: cell-based
Experimental: as §2

Salmonella paratyphi-B [3] = experiment: Antimicrobial well method, zone of inhibition; type: cell-based
Experimental: as §2

Salmonella typhimurium [4] = experiment: Antimicrobial well method, zone of inhibition; type: cell-based; conditions: Salmonella enterica
Experimental: as §2

Shigella flexneri [5] = experiment: Antimicrobial well method, zone of inhibition; type: cell-based
Experimental: as §2

[6] = system: Staphylococcus aureus-MRSA; experiment: Antimicrobial well method, zone of inhibition; type: cell-based
Experimental: as §2

Staphylococcus aureus [7] = experiment: Antimicrobial well method, zone of inhibition; type: cell-based
Experimental: as §2

[8] = system: Staphylococcus epidermidis; experiment: Antimicrobial well method, zone of inhibition; type: cell-based
Experimental: as §2

Enterobacter aerogenes [9] = experiment: Minimum inhibitory concentration (MIC); type: cell-based; conditions: Klebsiella aerogenes; Enterobacter aerogenes; read-out: Minimum inhibitory concentration
Experimental: (§3) The MIC experiment was carried out according to the standard reference methods. Briefly, the required concentrations of synthesized compounds 5a–l were dissolved in DMSO (Dimethylsulfoxide) in concentrations of 500 µg/mL, 250 µg/mL, 125 µg/mL, 62.5 µg/mL, 31.25 µg/mL, 15.6 µg/mL, and […]. An inoculum of 100 µL from each well (96-well plate) was inoculated. For the positive control, ketoconazole (fungi) and streptomycin (bacteria) was used. The MIC values for the tested bacteria were identified as the lowest inhibiting concentration of compound on the agar plate in visual growth.

Micrococcus luteus [10] = experiment: Minimum inhibitory concentration (MIC); type: cell-based; conditions: read-out: Minimum inhibitory concentration
Experimental: as §3

Salmonella paratyphi-B [11] = experiment: Minimum inhibitory concentration (MIC); type: cell-based
Experimental: as §3

Salmonella typhimurium [12] = experiment: Minimum inhibitory concentration (MIC); type: cell-based; conditions: Salmonella enterica, read-out: Minimum inhibitory concentration
Experimental: as §3

Shigella flexneri [13] = experiment: Minimum inhibitory concentration (MIC); type: cell-based
Experimental: as §3

[14] = system: Staphylococcus aureus-MRSA; experiment: Minimum inhibitory concentration (MIC); type: cell-based; conditions: read-out: Minimum inhibitory concentration
Experimental: as §3

Staphylococcus aureus [15] = experiment: Minimum inhibitory concentration (MIC); type: cell-based; conditions: read-out: Minimum inhibitory concentration
Experimental: as §3

[16] = system: Staphylococcus epidermidis; experiment: Minimum inhibitory concentration (MIC); type: cell-based; conditions: read-out: Minimum inhibitory concentration
Experimental: as §3

Klebsiella pneumoniae [17] = experiment: Antimicrobial well method, zone of inhibition; type: cell-based
Experimental: as §2

Proteus vulgaris [18] = experiment: Antimicrobial well method, zone of inhibition; type: cell-based
Experimental: as §2

Klebsiella pneumoniae [19] = experiment: Minimum inhibitory concentration (MIC); type: cell-based; conditions: read-out: Minimum inhibitory concentration
Experimental: as §3

Proteus vulgaris [20] = experiment: Minimum inhibitory concentration (MIC); type: cell-based; conditions: read-out: Minimum inhibitory concentration
Experimental: as §3

IMR90 cells = experiment: Cytotoxicity on normal cells, MTT; type: cell-based; conditions: IMR-90, human normal IMR90 cells, 24 h treatment, read-out: IC50 against IMR90
Experimental: as §1

Compound	zone of inhibition (Candida albicans)	zone of inhibition at 1 mg/well (Malassezia pachydermatis)	zone of inhibition at 1 mg/well (Enterobacter aerogenes [1])	zone of inhibition at 1 mg/well (Micrococcus luteus [2])	zone of inhibition at 1 mg/well (Salmonella paratyphi-B [3])	zone of inhibition at 1 mg/well (Salmonella typhimurium [4])	zone of inhibition at 1 mg/well (Shigella flexneri [5])	zone of inhibition at 1 mg/well [6]	zone of inhibition at 1 mg/well (Staphylococcus aureus [7])	zone of inhibition at 1 mg/well [8]	MIC (Enterobacter aerogenes [9])	MIC (Micrococcus luteus [10])	MIC (Salmonella paratyphi-B [11])	MIC (Shigella flexneri [13])	MIC ([14]; Staphylococcus aureus-MRSA)	MIC (Staphylococcus aureus [15])	MIC [16]	melting point	zone of inhibition at 1 mg/well (Klebsiella pneumoniae [17])	zone of inhibition at 1 mg/well (Proteus vulgaris [18])	also measured
N.N.[Cl][Pt][Cl] [Cisplatin, reference compound]																					IC50 (A549 cells): 16.4 ± 3.19 µM; IC50 (HepG-2 cells; 24 h treatment): 22.1 ± 3.08 µM
CC(=O)N1CCN(c2ccc(OCC3COC(Cn4ccnc4)(c4ccc(Cl)cc4Cl)O3)cc2)CC1 (centres unmarked) [Ketoconazole, reference compound]	28 mm	26 mm																			
C[C@@H]([C@@H](c1ccccc1)n1cc(COC(=O)c2ccccc2)nn1)N1CCCC1 [5d, (1R,2S)-(1-(1-Phenyl-2-(pyrrolidin-1-yl)propyl)-1H-1,2,3-triazol-4-yl)methyl benzoate]	13 mm	10 mm	10 mm	19 mm	14 mm	12 mm	13 mm	16 mm	13 mm	13 mm	500 µg/mL (≈ 1280 µM)	62.5 µg/mL (≈ 160 µM)	250 µg/mL (≈ 640 µM)	250 µg/mL (≈ 640 µM)	125 µg/mL (≈ 320 µM)	250 µg/mL (≈ 640 µM)	250 µg/mL (≈ 640 µM)	129 to 130 °C			MIC (Salmonella typhimurium [12]; Salmonella typhimurium): 500 µg/mL (≈ 1280 µM)
[H]/N=C(/N)N[C@H]1[C@H](O)[C@@H](O)[C@H](O[C@@H]2O[C@@H](C)[C@](O)(C=O)[C@H]2O[C@@H]2O[C@@H](CO)[C@H](O)[C@@H](O)[C@@H]2NC)[C@@H](N/C(N)=N\[H])[C@@H]1O [Streptomycin, reference compound]			22 mm	26 mm	18 mm	24 mm	30 mm	30 mm	14 mm	26 mm	25 µg/mL (≈ 43 µM)	6.25 µg/mL (≈ 10.7 µM)	30 µg/mL (≈ 51.6 µM)	6.25 µg/mL (≈ 10.7 µM)		6.25 µg/mL (≈ 10.7 µM)	25 µg/mL (≈ 43 µM)		20 mm	30 mm	MIC (Klebsiella pneumoniae [19]): 25 µg/mL (≈ 43 µM); MIC (Proteus vulgaris [20]): 6.25 µg/mL (≈ 10.7 µM); MIC (Salmonella typhimurium [12]; TYPHIMURIUM): 6.25 µg/mL (≈ 10.7 µM); MIC ([14]; Staphylococcus, MRSA): 6.25 µg/mL (≈ 10.7 µM)
CC([C@@H](c1ccccc1)n1cc(CN(C)[C@@H](C)Cc2ccccc2)nn1)N1CCCC1 (stereo partly drawn) [5f, (1R,2S)-N-Methyl-1-phenyl-N-((1-(1-phenyl-2-(pyrrolidin-1-yl)propyl)-1H-1,2,3-triazol-4-yl)methyl)propan-2-amine]		12 mm		13 mm	14 mm		19 mm	15 mm		17 mm		250 µg/mL (≈ 599 µM)	250 µg/mL (≈ 599 µM)	62.5 µg/mL (≈ 150 µM)	250 µg/mL (≈ 599 µM)		125 µg/mL (≈ 299 µM)	118 to 119 °C	18 mm		MIC (Klebsiella pneumoniae [19]): 125 µg/mL (≈ 299 µM)
COc1ccc(Br)c(C(=O)OCc2cn(C(c3ccccc3)C(C)N3CCCC3)nn2)c1 [5e, (1R,2S)-(1-(1-Phenyl-2-(pyrrolidin-1-yl)propyl)-1H-1,2,3-triazol-4-yl)methyl-2-bromo-5-methoxy benzoate]	15 mm	14 mm	10 mm	15 mm	10 mm	12 mm	15 mm	10 mm	12 mm	10 mm									10 mm	13 mm	cytotoxic / anticancer activity against A549 cells (A549 cells): promising anticancer activity; IC50 (A549 cells; Homo sapiens): 130 ± 0.65 µM; cytotoxic activity against HepG-2 cells (HepG-2 cells): moderate activity; IC50 (HepG-2 cells; Homo sapiens, HepG2, 24 h treatment): 164 ± 2.01 µM; IC50 (IMR90 cells): > 250 µM
CCC(C(=O)OCc1cn(C(c2ccccc2)C(C)N2CCCC2)nn1)c1ccccc1 [5l, (1R,2S)-((1-(1-Phenyl-2-(pyrrolidin-1-yl)propyl)-1H-1,2,3-triazol-4-yl)methyl 2-phenylbutanoate]		12 mm																127 to 129 °C			
C[C@@H]([C@@H](c1ccccc1)n1cc(CC2(O)CCCCC2)nn1)N1CCCC1 [5b, (1R,2S)-1-((1-(1-Phenyl-2-(pyrrolidin-1-yl)propyl)-1H-1,2,3-triazol-4-yl)methyl) cyclohexanol]			12 mm	13 mm	11 mm	11 mm		12 mm	10 mm	10 mm								137 to 138 °C	10 mm	12 mm	
C[C@@H]([C@@H](c1ccccc1)n1cc(COC(=O)C=Cc2ccccc2)nn1)N1CCCC1 [5c, (1R,2S)-(1-(1-Phenyl-2-(pyrrolidin-1-yl)propyl)-1H-1,2,3-triazol-4-yl)methyl cinnamate]			14 mm	16 mm	14 mm	12 mm	13 mm	18 mm	16 mm	15 mm	250 µg/mL (≈ 600 µM)	125 µg/mL (≈ 300 µM)	250 µg/mL (≈ 600 µM)	250 µg/mL (≈ 600 µM)	125 µg/mL (≈ 300 µM)	125 µg/mL (≈ 300 µM)	250 µg/mL (≈ 600 µM)	140 to 141 °C	12 mm	10 mm	MIC (Klebsiella pneumoniae [19]): 500 µg/mL (≈ 1200 µM); MIC (Proteus vulgaris [20]): 500 µg/mL (≈ 1200 µM); MIC (Salmonella typhimurium [12]; Salmonella typhimurium): 500 µg/mL (≈ 1200 µM)

Source: article PMC6803965, “A New Class of β–Pyrrolidino-1,2,3-Triazole Derivatives as β-Adrenergic Receptor Inhibitors: Synthesis, Pharmacological, and Docking Studies” (Molecules, 2019)
